In patent US20110262502A1, “PULMONARY DELIVERY OF 17-HYDROXYPROGESTERONE CAPROATE (17-HPC)” (Prairie Pharmaceuticals LLC, priority 2010, published 2011):

Columns and labels:
[1] = test system: PHA-induced IL-2 release in IL-2 and IL-4 treated (steroid resistant) PBMCs; assay: IL-2/IL-4 induced steroid resistance model in PBMCs: dexamethasone inhibition of PHA-induced IL-2 release; format: cell-based, human; conditions: for PHA-induced IL-2 level: FIG. 5
Method: J Immunol 2009; 183; 164-171). […] Following PBMCs stimulation with mitogen phytohaemagglutinin (PHA), there is a strong correlation between cytokine secretion levels and steroid resistance as well as steroid sensitivity in vitro. Addition of IL-2, IL-4 and TNF-reduce steroid sensitivity.
PBMCs (2×10^6) were incubated with or without IL-2 (13 ng/ml) and IL-4 (6.5 ng/ml) for 48 hours in RPMI-1640 medium containing 10% FCS and 2 mM glutamine. […] IL-2 and IL-4 stimulated PBMCs were also plated at a concentration of 10^6 cells/ml in 96-well plates ready for PHA (15 μg/mL, 24 hours) stimulation of cytokine release and detection by ELISA.
IL-2/4 induced steroid resistance in PBMCs, a well-recognized study model, was used to evaluate potential modifiers of steroid resistance and sensitivity. PBMCs from healthy smokers were collected. Corticosteroid insensitivity or resistance was induced by adding IL-2 and IL-4 in peripheral blood mononuclear cells (PBMCs) from healthy male smokers (n=˜11). […] IL-2 levels were quantified using ELISA.
J Immunol 2009; 183; 164-171).
IL-2 levels were quantified using ELISA.

[2] = API particle size distribution (Dv(10), Dv(50), Dv(90), Span); format: physicochemical; conditions: 5% (w/w) in water, 15% Tween 80, 90 bar
Source text: In determining and characterizing particle size, e.g., particle size of an API (active pharmaceutical ingredient), the particle size parameters Dv(10), Dv(50) and Dv(90) may be used. Particle size measurements are preferably expressed in terms of Dv(10), Dv(50), and Dv(90), wherein Dv(10) refers to the particle size below which 10% of the volume of material exists; Dv(50) refers to the particle size below which 50% of the volume of material exists; and Dv(90) refers to the particle size below which 90% of the volume of material exists.
Referring to Table 5, experiments were performed with a suspension comprising the active pharmaceutical ingredient (the API), i.e., 17-HPC was the API in these experiments, wherein 17-HPC was present at approximately five percent (5%) w/w in water; and the suspension also comprised the surfactant Tween 80 at approximately 15% in these experiments (processing conditions conducted at Pressure=90 bar). […] Particle size measurements are expressed in terms of Dv(10), Dv(50), and Dv(90), wherein Dv(10) refers to the particle size below which 10% of the volume of material exists; Dv(50) refers to the particle size below which 50% of the volume of material exists; and Dv(90) refers to the particle size below which 90% of the volume of material exists). […]
Exemplary particle size reduction experiments, and characterization of API (i.e., 17-HPC) particle size distribution, using a suspension prepared without a surfactant. Referring to Table 7, particle size reduction of 17-HPC was observed without using any surfactant. Experiments were performed with a suspension comprising the active pharmaceutical ingredient (the API), i.e., 17-HPC in these experiments, in water and without a surfactant. FIG. 16 depicts an exemplary API particle size distribution profile (17-HPC is the active ingredient) after a spray-drying (SD) process. Referring again to FIG. 16, and also to Table 7, an exemplary 17-HPC particle size distribution profile was obtained after approximately 10 to 55 cycles of milling. API particle size was measured after spray drying (SD). Particle size measurements are expressed in terms of Dv(10), Dv(50), and Dv(90), wherein Dv(10) refers to the particle size below which 10% of the volume of material exists; Dv(50) refers to the particle size below which 50% of the volume of material exists; and Dv(90) refers to the particle size below which 90% of the volume of material exists).

[3] = FIG. 4, high dose Dexamethasone 10^−6 M

- Particle Size Dv(10) ([2]; after 8 cycles): 1.015 μm
- Particle Size Dv(50) ([2]; after 8 cycles): 3.021 μm
- Particle Size Dv(90) ([2]; after 8 cycles): 7.302 μm
- Particle Size Span ([2]; after 8 cycles): 2.081
- Particle Size Dv(10) ([2]; after 16 cycles): 1.071 μm
- Particle Size Dv(50) ([2]; after 16 cycles): 2.574 μm
- Particle Size Dv(90) ([2]; after 16 cycles): 5.347 μm
- Particle Size Span ([2]; after 16 cycles): 1.662
- Particle Size Dv(10) ([2]; after 25 cycles): 1.014 μm
- Particle Size Dv(50) ([2]; after 25 cycles): 2.255 μm
- Particle Size Dv(90) ([2]; after 25 cycles): 4.517 μm
- Particle Size Span ([2]; after 25 cycles): 1.553
SMILES: CCCCCC(=O)O[C@]1(C(C)=O)CC[C@H]2[C@@H]3CCC4=CC(=O)CC[C@]4(C)[C@H]3CC[C@@]21C [17HPC, 17α-HYDROXYPROGESTERONE CAPROATE]
- highest improvement rate in Imax [1, 3]: 18%
- improvement rate in Imax at all dose levels [1, 3]: 16-18%
- PHA-induced IL-2 level ([1]; Dexamethasone 10^−10 M + 17HPC 10^−5M): 1595 pg/mL
- PHA-induced IL-2 level ([1]; Dexamethasone 10^−10 M + 17HPC 10^−7M): 1805 pg/mL
- PHA-induced IL-2 level ([1]; Dexamethasone 10^−10 M + 17HPC 10^−10 M): 2119 pg/mL
- subjects with more than 10% improvement in % maximal Dexamethasone inhibition ([1]; FIG. 6, Dexamethasone 10^−6 M): Ten out of 11
